GI50 and TGI data for 16 compounds are collected here from PubChem BioAssay (NCI).

Where “and” joins values, the source holds several entries; their conditions need not be identical. Equal entries are not always repeated.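 Results reflect a 48-hour exposure of cells in 96-well plates to compound at five concentrations. GI50: concentration for 50% inhibition of growth. The concentration for full growth arrest is given as TGI.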

The first experiment has as its system OVCAR-4 ovarian. As to the kind of experiment: inhibition of tumour cell growth, NCI panel, 48 h.
Regarding `CCCN1C(=O)/C(=c2\sc3n(c2=O)C2C(NN=3)N(CC)C(=O)N2CC)c2ccccc21` (stereo not drawn), the GI50 is 0.933 µM and the TGI was 12.8 µM.

For the compound `CCn1c(-c2nonc2N)nc2cncc(C(=O)N3CCNCC3)c21`, the GI50 was > 25 µM and the TGI was > 25 µM.

As for `c1ccc2[nH]c(-c3ccc(N4CCN(c5ccc(-c6nc7ccccc7[nH]6)cc5)CC4)cc3)nc2c1`, the GI50 is > 100 µM and the TGI was > 100 µM.

For `CCN(CC)CCOc1ccc(C(=C(C)c2ccc(Cl)cc2)c2ccc(OCCN(CC)CC)cc2)cc1`, the GI50 was 0.586 µM and the TGI was found to be 1.32 µM.

Consider `C[C@]12CC[C@H]3[C@@H](CCC4=CC(=O)CC[C@@H]43)[C@@H]1CC[C@@H]2OC(=O)N(CCCl)N=O`, for which the GI50 was 10.8 µM and the TGI was 31.2 µM.

For the compound `CC12CCC(=O)C=C1CCC1C2CCC2(C)C(C(=O)Cn3cnc4c(=S)nc[nH]c43)CCC12` (stereo not drawn), the TGI is 55 µM.

Regarding `CCc1ccc(NCc2cc(OC)c(OC)c(OC)c2)cc1`, the TGI is > 100 µM.

Regarding `COc1cc2c(cc1OC)-c1ccc3cc4c(cc3c1N(CCN1CCCC1)C2)OCO4`, the GI50 is 0.858 µM and the TGI is 6.49 µM.

Regarding `O=C(O)CS(=O)(=O)C(c1ccccc1)c1ccccc1`, the TGI is > 100 µM.

For the compound `C=C(C)[C@@H]1CC[C@]2(C(=O)NCCCN)CC[C@]3(C)[C@H](CC[C@@H]4[C@@]5(C)CC[C@H](O)C(C)(C)[C@@H]5CC[C@]43C)[C@@H]12`, the GI50 is 25.6 µM and the TGI is > 100 µM.

As to `O=C(Nc1cccc(Cl)c1)Nc1ncc(CCNc2ncnc3ccsc23)s1`, the GI50 is 2.1 µM and 2.93 µM; the TGI was 11.9 µM and > 10 µM.

With `CCOC(=O)Cc1c[nH]c(=S)[nH]c1=O`, the GI50 was > 100 µM and the TGI was > 100 µM.

As for `CCc1c(C)[nH]c(/C=C2\N=C(c3ccc[nH]3)C=C2OC)c1C`, the GI50 was 0.893 µM and the TGI worked out at 12.5 µM.

For `CCc1ccc(NC(=O)Nc2c[nH]c3ccccc23)cc1`, the GI50 was 10.1 µM and the TGI is > 54.7 µM.

For `Nc1ncnc2sc(=S)c3c(c12)CCC3`, the GI50 was 69.8 µM and the TGI was > 100 µM.

For the compound `N=C(N)c1nn(C2OC(CO)C(O)C2O)c2nc[nH]c(=O)c12` (stereo not drawn), the GI50 is 0.647 µM and the TGI was found to be 7.84 µM.

Another experiment concerns CAKI-1 renal. As to the kind of experiment: inhibition of tumour cell growth, NCI panel, 48 h.
`CCCN1C(=O)/C(=c2\sc3n(c2=O)C2C(NN=3)N(CC)C(=O)N2CC)c2ccccc21` (stereo not drawn): the GI50 was 0.445 µM and the TGI is 16.1 µM.

Consider `CCn1c(-c2nonc2N)nc2cncc(C(=O)N3CCNCC3)c21`, for which the GI50 was > 25 µM and the TGI was > 25 µM.

With `c1ccc2[nH]c(-c3ccc(N4CCN(c5ccc(-c6nc7ccccc7[nH]6)cc5)CC4)cc3)nc2c1`, the GI50 was > 100 µM and the TGI is > 100 µM.

For the compound `CCN(CC)CCOc1ccc(C(=C(C)c2ccc(Cl)cc2)c2ccc(OCCN(CC)CC)cc2)cc1`, the GI50 was 0.504 µM and the TGI was found to be 1.02 µM.

For the compound `C[C@]12CC[C@H]3[C@@H](CCC4=CC(=O)CC[C@@H]43)[C@@H]1CC[C@@H]2OC(=O)N(CCCl)N=O`, the GI50 is 0.51 µM and the TGI was 27.6 µM.

`CC12CCC(=O)C=C1CCC1C2CCC2(C)C(C(=O)Cn3cnc4c(=S)nc[nH]c43)CCC12` (stereo not drawn): the TGI was > 100 µM.

As for `CCc1ccc(NCc2cc(OC)c(OC)c(OC)c2)cc1`, the TGI is > 100 µM.

For the compound `COc1cc2c(cc1OC)-c1ccc3cc4c(cc3c1N(CCN1CCCC1)C2)OCO4`, the GI50 was 0.814 µM and the TGI is 11.5 µM.

Turning to `O=C(O)CS(=O)(=O)C(c1ccccc1)c1ccccc1`, the TGI is > 100 µM.

As to `C=C(C)[C@@H]1CC[C@]2(C(=O)NCCCN)CC[C@]3(C)[C@H](CC[C@@H]4[C@@]5(C)CC[C@H](O)C(C)(C)[C@@H]5CC[C@]43C)[C@@H]12`, the GI50 was 21.9 µM and the TGI was > 100 µM.

Consider `O=C(Nc1cccc(Cl)c1)Nc1ncc(CCNc2ncnc3ccsc23)s1`, for which the GI50 is 1.12 µM and 1.34 µM; the TGI was 22.8 µM and > 10 µM.

On to `CCOC(=O)Cc1c[nH]c(=S)[nH]c1=O`, for which the GI50 is > 100 µM and the TGI is > 100 µM.

With `CCc1c(C)[nH]c(/C=C2\N=C(c3ccc[nH]3)C=C2OC)c1C`, the GI50 is 0.292 µM and the TGI is 3.53 µM.

Turning to `CCc1ccc(NC(=O)Nc2c[nH]c3ccccc23)cc1`, the GI50 was 3.59 µM and the TGI was > 42 µM.

Take `Nc1ncnc2sc(=S)c3c(c12)CCC3`: the GI50 is 30.9 µM and the TGI was > 100 µM.

On to `N=C(N)c1nn(C2OC(CO)C(O)C2O)c2nc[nH]c(=O)c12` (stereo not drawn), for which the GI50 is 0.264 µM and the TGI is 1.2 µM.

Another experiment deals with SNB-75 CNS. As to the kind of experiment: inhibition of tumour cell growth, NCI panel, 48 h.
For `CCCN1C(=O)/C(=c2\sc3n(c2=O)C2C(NN=3)N(CC)C(=O)N2CC)c2ccccc21` (stereo not drawn), the GI50 is 0.199 µM and the TGI is 0.79 µM.

Regarding `CCn1c(-c2nonc2N)nc2cncc(C(=O)N3CCNCC3)c21`, the GI50 is > 25 µM and the TGI was > 25 µM.

Consider `c1ccc2[nH]c(-c3ccc(N4CCN(c5ccc(-c6nc7ccccc7[nH]6)cc5)CC4)cc3)nc2c1`, for which the GI50 is > 100 µM and the TGI was > 100 µM.

For the compound `CCN(CC)CCOc1ccc(C(=C(C)c2ccc(Cl)cc2)c2ccc(OCCN(CC)CC)cc2)cc1`, the GI50 was 0.0499 µM and the TGI was determined as 1.66 µM.

As to `C[C@]12CC[C@H]3[C@@H](CCC4=CC(=O)CC[C@@H]43)[C@@H]1CC[C@@H]2OC(=O)N(CCCl)N=O`, the GI50 was 0.317 µM and the TGI worked out at 16.4 µM.

In turn, `CC12CCC(=O)C=C1CCC1C2CCC2(C)C(C(=O)Cn3cnc4c(=S)nc[nH]c43)CCC12` (stereo not drawn) showed a TGI of 36.8 µM.

`CCc1ccc(NCc2cc(OC)c(OC)c(OC)c2)cc1`: the GI50 is 0.387 µM and 0.882 µM; the TGI is > 100 µM.

For `COc1cc2c(cc1OC)-c1ccc3cc4c(cc3c1N(CCN1CCCC1)C2)OCO4`, the GI50 was 0.357 µM and the TGI came out at 5.81 µM.
